Some results are limits rather than exact numbers.

Chain of USP30 (Q70CQ3 57-517): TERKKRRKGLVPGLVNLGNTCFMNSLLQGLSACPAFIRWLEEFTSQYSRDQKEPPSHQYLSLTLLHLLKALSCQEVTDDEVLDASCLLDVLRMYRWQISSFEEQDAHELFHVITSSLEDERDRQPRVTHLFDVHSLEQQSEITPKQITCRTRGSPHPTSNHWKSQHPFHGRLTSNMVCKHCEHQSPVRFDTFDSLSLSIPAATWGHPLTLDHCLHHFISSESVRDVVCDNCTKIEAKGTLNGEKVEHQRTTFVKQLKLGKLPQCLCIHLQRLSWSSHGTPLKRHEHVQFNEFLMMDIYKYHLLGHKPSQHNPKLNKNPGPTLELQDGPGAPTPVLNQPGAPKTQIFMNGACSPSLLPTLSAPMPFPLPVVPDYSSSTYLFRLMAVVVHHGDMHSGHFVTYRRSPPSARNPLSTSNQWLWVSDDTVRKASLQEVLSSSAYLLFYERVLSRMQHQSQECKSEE

The assay addresses USP30 (Homo sapiens (Human), UniProt Q70CQ3). The experiment in a line: USP30 biochemical FP or FI IC50 assay. The following applies: read-out: IC50 range. The method, boiled down:
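Human USP30 preincubated 30 min at room temperature with compound (8-point series, 100 µM top final) in Tris pH 7.5, Tween 20, BSA, 5 mM β-mercaptoethanol, in duplicate. FP format: 50 nM TAMRA-peptide–isopeptide-ubiquitin substrate, ex 540/em 590. FI format: 100 nM ubiquitin-rhodamine 110, ex 487/em 535. Both read at 0 and after 2 h at room temperature.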
Regarding `Cc1cc(C(=O)N[C@@H]2CCN(C#N)C2)nn1C(C)c1ccccc1` (stereo partly drawn) [Example 150, N-((R)-1-cyanopyrrolidin-3-yl)-5-methyl-1-(1-phenylethyl)-1H-pyrazole-3-carboxamide], the IC50 – broadly, the point on the concentration scale where inhibition reaches its midpoint – fell in the range of 100 to 1000 nM. Next, `Cc1cc(C(=O)N[C@@H]2CCN(C#N)C2)nn1Cc1ccccn1` [Example 151, (R)-N-(1-cyanopyrrolidin-3-yl)-5-methyl-1-(pyridin-2-ylmethyl)-1H-pyrazole-3-carboxamide]: 100 to 1000 nM.

As for `N#CN1CC[C@@H](NC(=O)c2ccc(-c3ccnnc3)cc2F)C1` [Example 152, (R)-N-(1-cyanopyrrolidin-3-yl)-2-fluoro-4-(pyridazin-4-yl)benzamide], the IC50 lay within 100 to 1000 nM. Next, `CC(C)Cn1nc(C(=O)N[C@@H]2CCN(C#N)C2)c2ccc(-c3cnn(C)c3)cc21` [Example 153, (R)-N-(1-cyanopyrrolidin-3-yl)-1-isobutyl-6-(1-methyl-1H-pyrazol-4-yl)-1H-indazole-3-carboxamide]: 100 to 1000 nM; `Cc1noc(C)c1-c1ccc2c(C(=O)N[C@@H]3CCN(C#N)C3)nn(CC(C)C)c2c1` [Example 154, (R)-N-(1-cyanopyrrolidin-3-yl)-6-(3,5-dimethylisoxazol-4-yl)-1-isobutyl-1H-indazole-3-carboxamide]: below 100 nM.

On to `Cc1noc(C)c1-c1ccc2c(C(=O)N[C@@H]3CCN(C#N)C3)nn(CC3CC3)c2c1` [Example 155, (R)-N-(1-cyanopyrrolidin-3-yl)-1-(cyclopropylmethyl)-6-(3,5-dimethylisoxazol-4-yl)-1H-indazole-3-carboxamide], for which the IC50 was below 100 nM. Next, `CN(C(=O)c1cn2cc(-c3cnn(C)c3)ccc2n1)[C@@H]1CCN(C#N)C1` [Example 156, (R)-N-(1-cyanopyrrolidin-3-yl)-N-methyl-6-(1-methyl-1H-pyrazol-4-yl)imidazo[, 2-a]pyridine-2-carboxamide]: 100 to 1000 nM. Regarding `CN(C(=O)c1cc2cc(-c3cnn(C)c3)ccc2[nH]1)[C@@H]1CCN(C#N)C1` [Example 157, (R)-N-(1-cyanopyrrolidin-3-yl)-N-methyl-5-(1-methyl-1H-pyrazol-4-yl)-1H-indole-2-carboxamide], the IC50 was below 100 nM.

Take `Cc1noc(C)c1-c1ccc2[nH]c(C(=O)N(C)[C@@H]3CCN(C#N)C3)nc2c1` [Example 158, (R)-N-(1-cyanopyrrolidin-3-yl)-6-(3,5-dimethylisoxazol-4-yl)-N-methyl-1H-benzo[d]imidazole-2-carboxamide]: the IC50 fell in the range of 100 to 1000 nM. Next, `Cn1cc(-c2ccn3c(C(=O)N[C@@H]4CCN(C#N)C4)cnc3c2)cn1` [Example 159, (R)-N-(1-cyanopyrrolidin-3-yl)-7-(1-methyl-1H-pyrazol-4-yl)imidazo[1,2-a]pyridine-3-carboxamide]: 100 to 1000 nM. Under `N#Cc1cccc(-c2ccn3c(C(=O)N[C@@H]4CCN(C#N)C4)cnc3c2)c1` [Example 160, (R)-7-(3-cyanophenyl)-N-(1-cyanopyrrolidin-3-yl)imidazo[1,2-a]pyridine-3-carboxamide] stands below 100 nM.

For `Cc1cc(-c2ccn3c(C(=O)N(C)[C@@H]4CCN(C#N)C4)cnc3c2)ccn1` [Example 161, (R)-N-(1-cyanopyrrolidin-3-yl)-N-methyl-7-(2-methylpyridin-4-yl)imidazo[1,2-a]pyridine-3-carboxamide], the IC50 lay within 100 to 1000 nM. Turning to `Cc1ccc(-c2ccn3c(C(=O)N(C)[C@@H]4CCN(C#N)C4)cnc3c2)cn1` [Example 162, (R)-N-(1-cyanopyrrolidin-3-yl)-N-methyl-7-(6-methylpyridin-3-yl)imidazo[1,2-a]pyridine-3-carboxamide], the half-inhibitory concentration (IC50) lay in the range of 100 to 1000 nM. Regarding `Cc1nn(C)cc1-c1ccn2c(C(=O)N(C)[C@@H]3CCN(C#N)C3)cnc2c1` [Example 163, (R)-N-(1-cyanopyrrolidin-3-yl)-7-(1,3-dimethyl-1H-pyrazol-4-yl)-N-methylimidazo[1,2-a]pyridine-3-carboxamide], the IC50 was in the range of 100 to 1000 nM. As for `Cc1cc(-c2ccn3c(C(=O)N(C)[C@@H]4CCN(C#N)C4)cnc3c2)cc(C)n1` [Example 164, (R)-N-(1-cyanopyrrolidin-3-yl)-7-(2,6-dimethylpyridin-4-yl)-N-methylimidazo[1,2-a]pyridine-3-carboxamide], the concentration for half-maximal inhibition (IC50) fell in the range of 100 to 1000 nM. Under `CCN(C(=O)c1cnc2cc(-c3ccnc(C)c3)ccn12)[C@@H]1CCN(C#N)C1` [Example 165, (R)-N-(1-cyanopyrrolidin-3-yl)-N-ethyl-7-(2-methylpyridin-4-yl)imidazo[1,2-a]pyridine-3-carboxamide] stands 100 to 1000 nM. Consider `N#CN1CC[C@@H](NC(=O)c2cnc3cc(N4CCOCC4)ccn23)C1` [Example 166, (R)-N-(1-cyanopyrrolidin-3-yl)-7-morpholinoimidazo[1,2-a]pyridine-3-carboxamide], for which the half-inhibitory concentration (IC50) lay within 100 to 1000 nM. With `N#Cc1cccc(-c2ccc3nc(C(=O)N[C@@H]4CCN(C#N)C4)c(F)n3c2)c1` [Example 167, (R)-6-(3-cyanophenyl)-N-(1-cyanopyrrolidin-3-yl)-3-fluoroimidazo[1,2-a]pyridine-2-carboxamide], the half-maximal inhibitory concentration (IC50) was below 100 nM.

`CCn1cc(-c2ccc3nc(C(=O)N[C@@H]4CCN(C#N)C4)c(F)n3c2)cn1` [Example 169, (R)-N-(1-cyanopyrrolidin-3-yl)-6-(1-ethyl-1H-pyrazol-4-yl)-3-fluoroimidazo[1,2-a]pyridine-2-carboxamide]: the IC50 lay in the range of 100 to 1000 nM.

For `Cc1nn(C)cc1-c1ccc2nc(C(=O)N[C@@H]3CCN(C#N)C3)c(F)n2c1` [Example 170, (R)-N-(1-cyanopyrrolidin-3-yl)-6-(1,3-dimethyl-1H-pyrazol-4-yl)-3-fluoroimidazo[1,2-a]pyridine-2-carboxamide], the IC50 fell in the range of 100 to 1000 nM. On to `N#CN1CC[C@@H](NC(=O)c2ccc(-c3ccn4nccc4n3)cc2F)C1` [Example 172, (R)-N-(1-cyanopyrrolidin-3-yl)-2-fluoro-4-(pyrazolo[1,5-a]pyrimidin-5-yl)benzamide], for which the IC50 is below 100 nM. Under `N#CN1CC[C@@H](NC(=O)c2ccc(-c3ccc(F)cc3)cn2)C1` [Example 173, (R)-N-(1-cyanopyrrolidin-3-yl)-5-(4-fluorophenyl)picolinamide] stands below 100 nM; under `Cc1nn(C)cc1-c1ccc(C(=O)N[C@@H]2CCN(C#N)C2)nc1` [Example 179, (R)-N-(1-cyanopyrrolidin-3-yl)-5-(1,3-dimethyl-1H-pyrazol-4-yl)picolinamide], 100 to 1000 nM; under `Cc1nc(-c2ccc(C(=O)N[C@@H]3CCN(C#N)C3)nc2)cc(C(F)(F)F)n1` [Example 180, (R)-N-(1-cyanopyrrolidin-3-yl)-5-(2-methyl-6-(trifluoromethyl)pyrimidin-4-yl)picolinamide], 100 to 1000 nM. Next, `Cc1cc(-c2ccc(C(=O)N[C@@H]3CCN(C#N)C3)c(F)c2)nc(C)n1` [Example 181, (R)-N-(1-cyanopyrrolidin-3-yl)-4-(2,6-dimethylpyrimidin-4-yl)-2-fluorobenzamide]: below 100 nM; `Cc1ncc(F)c(-c2ccc(C(=O)N[C@@H]3CCN(C#N)C3)c(F)c2)n1` [Example 182, (R)-N-(1-cyanopyrrolidin-3-yl)-2-fluoro-4-(5-fluoro-2-methylpyrimidin-4-yl)benzamide]: below 100 nM; `N#CN1CC[C@@H](NC(=O)c2ccc(-c3ccnc(C(F)(F)F)n3)cc2F)C1` [Example 183, (R)-N-(1-cyanopyrrolidin-3-yl)-2-fluoro-4-(2-(trifluoromethyl)pyrimidin-4-yl)benzamide]: 100 to 1000 nM. Next, `Cc1nc2nccc-2c(-c2ccc(C(=O)N[C@@H]3CCN(C#N)C3)c(F)c2)[nH]1` [Example 184, (R)-N-(1-cyanopyrrolidin-3-yl)-2-fluoro-4-(2-methyl-3H-pyrrolo[2,3-d]pyrimidin-4-yl)benzamide]: below 100 nM; `N#CN1CC[C@@H](NC(=O)c2ccc(-c3cnc4cnccn34)cc2F)C1` [Example 185, (R)-N-(1-cyanopyrrolidin-3-yl)-2-fluoro-4-(imidazo[1,2-a]pyrazin-3-yl)benzamide]: below 100 nM.

Consider `N#CN1CC[C@@H](NC(=O)c2ncc(-c3ccn4nccc4n3)cc2F)C1` [Example 186, (R)-N-(1-cyanopyrrolidin-3-yl)-3-fluoro-5-(pyrazolo[1,5-a]pyrimidin-5-yl)picolinamide], for which the 50% inhibitory concentration (IC50) is 100 to 1000 nM. Next, `N#CN1CC[C@@H](NC(=O)c2ncc(-c3ccc4nccn4c3)cc2F)C1` [Example 187, (R)-N-(1-cyanopyrrolidin-3-yl)-3-fluoro-5-(imidazo[1,2-a]pyridin-6-yl)picolinamide]: 100 to 1000 nM. Next, `COC1(c2ccccc2)CN(C(=O)N[C@@H]2CCN(C#N)C2)C1` [Example 188, (R)-N-(1-cyanopyrrolidin-3-yl)-3-methoxy-3-phenylazetidine-1-carboxamide]: 100 to 1000 nM. Under `CN(C(=O)N1CC(c2ccccc2)C1)[C@@H]1CCN(C#N)C1` [Example 189, (R)-N-(1-cyanopyrrolidin-3-yl)-N-methyl-3-phenylazetidine-1-carboxamide] stands 100 to 1000 nM.

Regarding `COc1ccc(C2CN(C(=O)N[C@@H]3CCN(C#N)C3)C2)cc1` [Example 190, (R)-N-(1-cyanopyrrolidin-3-yl)-3-(4-methoxyphenyl)azetidine-1-carboxamide], the 50% inhibitory concentration (IC50) is below 100 nM. Regarding `N#CN1CC[C@@H](NC(=O)N2CC(c3ccc(Cl)cc3)C2)C1` [Example 191, (R)-3-(4-chlorophenyl)-N-(1-cyanopyrrolidin-3-yl)azetidine-1-carboxamide], the concentration for half-maximal inhibition (IC50) is below 100 nM. Next, `N#CN1CC[C@@H](NC(=O)N2CC(c3cccc(Cl)c3)C2)C1` [Example 192, (R)-3-(3-chlorophenyl)-N-(1-cyanopyrrolidin-3-yl)azetidine-1-carboxamide]: below 100 nM. Under `N#CN1C[C@H]2CCN(C(=O)N3CC(c4ccccc4)C3)[C@H]2C1` [Example 193, (3aR,6aR)-1-(3-phenylazetidine-1-carbonyl)hexahydropyrrolo[3,4-b]pyrrole-5(1H)-carbonitrile] stands 100 to 1000 nM.
